Laboratory results as given in PMC7316778 (Nature Communications, 2020).
Values joined by “and” are separate entries in the source; they are usually repeats but may differ in a detail not shown here. Identical values can stand only once. Like-named read-outs stand apart in the source and are kept apart here.

Experiments:
STK4 (MST1) = STK4 (MST1) (Homo sapiens, UniProt Q13043); experiment: SelectScreen kinase assay
Protocol: (§1) Selectivity profiling assays were performed by the Invitrogen SelectScreen™ Services. […] The concentration of ATP was selected to be equal to the KM, unless indicated otherwise.

FES^S700C HL-60 cells = experiment: Proliferation ratio during neutrophil differentiation; assay type: cell-based, human; conditions: 100 nM; Supplementary Figure 12d; individual replicates; listed as WEL028
CLK2 = CLK2 (Homo sapiens, UniProt P49760); experiment: SelectScreen kinase assay; conditions: 1 h, 1 μM WEL028, 1 h preincubation
Protocol: as §1

ACVRL1 (ALK1) = ACVRL1 (ALK1) (Homo sapiens, UniProt P37023); experiment: SelectScreen kinase assay
ACVRL1 (ALK1), sequence (P37023 22-503): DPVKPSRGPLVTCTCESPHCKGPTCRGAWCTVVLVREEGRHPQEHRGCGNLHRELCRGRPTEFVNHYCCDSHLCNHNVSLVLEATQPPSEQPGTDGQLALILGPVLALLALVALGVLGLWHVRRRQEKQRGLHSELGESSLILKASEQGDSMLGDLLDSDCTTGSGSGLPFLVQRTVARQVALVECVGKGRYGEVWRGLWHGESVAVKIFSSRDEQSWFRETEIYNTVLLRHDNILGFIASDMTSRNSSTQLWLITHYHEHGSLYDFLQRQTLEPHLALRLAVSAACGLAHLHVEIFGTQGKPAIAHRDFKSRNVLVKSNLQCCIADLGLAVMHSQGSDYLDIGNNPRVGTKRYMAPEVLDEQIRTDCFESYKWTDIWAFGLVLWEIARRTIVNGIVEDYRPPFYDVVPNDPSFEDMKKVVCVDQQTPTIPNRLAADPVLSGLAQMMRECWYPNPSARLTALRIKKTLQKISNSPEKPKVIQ
Protocol: as §1

CSNK2A1 (CK2 alpha 1) = CSNK2A1 (CK2 alpha 1) (Homo sapiens, UniProt P68400); experiment: SelectScreen kinase assay
CSNK2A1 (CK2 alpha 1), sequence (P68400 whole entry): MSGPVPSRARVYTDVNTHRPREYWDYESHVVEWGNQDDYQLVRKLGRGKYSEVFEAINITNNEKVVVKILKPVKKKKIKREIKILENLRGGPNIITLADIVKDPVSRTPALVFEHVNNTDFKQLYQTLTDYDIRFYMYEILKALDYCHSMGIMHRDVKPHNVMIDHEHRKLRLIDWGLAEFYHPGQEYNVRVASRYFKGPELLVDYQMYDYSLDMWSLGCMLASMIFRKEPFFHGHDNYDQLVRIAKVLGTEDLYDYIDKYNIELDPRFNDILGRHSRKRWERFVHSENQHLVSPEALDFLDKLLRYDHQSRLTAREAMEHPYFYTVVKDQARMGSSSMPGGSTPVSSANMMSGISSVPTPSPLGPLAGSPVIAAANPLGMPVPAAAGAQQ
Protocol: as §1

CDC42 BPG (MRCKG) = CDC42 BPG (MRCKG) (Homo sapiens, UniProt Q6DT37); experiment: SelectScreen kinase assay
Protocol: as §1

JAK1 = JAK1 (Homo sapiens, UniProt P23458); experiment: SelectScreen kinase assay; conditions: for Inhibition at 1 µM (%): JAK1, ZLYTE, ATP Km app
Protocol: as §1

MAPK1 (ERK2) = MAPK1 (ERK2) (Homo sapiens, UniProt P28482); experiment: SelectScreen kinase assay
MAPK1 (ERK2), sequence (P28482 whole entry): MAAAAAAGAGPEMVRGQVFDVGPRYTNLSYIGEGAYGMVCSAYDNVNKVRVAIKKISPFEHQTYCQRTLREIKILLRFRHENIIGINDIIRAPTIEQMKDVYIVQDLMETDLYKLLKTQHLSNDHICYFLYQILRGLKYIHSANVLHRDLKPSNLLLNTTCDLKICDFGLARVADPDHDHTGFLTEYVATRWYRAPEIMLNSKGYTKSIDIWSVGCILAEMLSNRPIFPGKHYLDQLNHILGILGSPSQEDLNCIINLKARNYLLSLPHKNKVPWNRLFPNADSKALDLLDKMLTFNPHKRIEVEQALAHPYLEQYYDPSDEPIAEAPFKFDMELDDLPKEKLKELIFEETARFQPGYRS
Protocol: as §1

MAP3K9 (MLK1) = MAP3K9 (MLK1) (Homo sapiens, UniProt P80192); experiment: SelectScreen kinase assay
Protocol: as §1

CSNK1G2 (CK1 gamma 2) = CSNK1G2 (CK1 gamma 2) (Homo sapiens, UniProt P78368); experiment: SelectScreen kinase assay
CSNK1G2 (CK1 gamma 2), sequence (P78368 whole entry): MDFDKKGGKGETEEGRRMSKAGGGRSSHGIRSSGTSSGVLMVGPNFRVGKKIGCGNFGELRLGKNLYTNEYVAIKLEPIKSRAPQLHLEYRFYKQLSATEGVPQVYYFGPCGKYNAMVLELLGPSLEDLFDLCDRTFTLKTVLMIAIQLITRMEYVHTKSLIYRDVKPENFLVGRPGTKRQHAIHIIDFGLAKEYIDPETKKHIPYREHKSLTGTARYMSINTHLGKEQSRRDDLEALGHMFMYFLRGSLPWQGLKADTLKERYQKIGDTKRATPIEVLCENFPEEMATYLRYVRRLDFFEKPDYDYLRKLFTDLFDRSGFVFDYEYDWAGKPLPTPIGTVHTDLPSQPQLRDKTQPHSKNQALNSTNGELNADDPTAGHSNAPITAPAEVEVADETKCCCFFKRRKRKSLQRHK
Protocol: as §1

[1] = target: PIK3CA/PIK3R1 (p110a/p85a) (Homo sapiens, UniProt P42336); experiment: SelectScreen kinase assay; conditions: for Inhibition at 1 µM (%): PIK3CA/PIK3R1 (p110 alpha/p85 alpha), Adapta, ATP Km app
PIK3CA/PIK3R1 (p110a/p85a), sequence (P42336 whole entry): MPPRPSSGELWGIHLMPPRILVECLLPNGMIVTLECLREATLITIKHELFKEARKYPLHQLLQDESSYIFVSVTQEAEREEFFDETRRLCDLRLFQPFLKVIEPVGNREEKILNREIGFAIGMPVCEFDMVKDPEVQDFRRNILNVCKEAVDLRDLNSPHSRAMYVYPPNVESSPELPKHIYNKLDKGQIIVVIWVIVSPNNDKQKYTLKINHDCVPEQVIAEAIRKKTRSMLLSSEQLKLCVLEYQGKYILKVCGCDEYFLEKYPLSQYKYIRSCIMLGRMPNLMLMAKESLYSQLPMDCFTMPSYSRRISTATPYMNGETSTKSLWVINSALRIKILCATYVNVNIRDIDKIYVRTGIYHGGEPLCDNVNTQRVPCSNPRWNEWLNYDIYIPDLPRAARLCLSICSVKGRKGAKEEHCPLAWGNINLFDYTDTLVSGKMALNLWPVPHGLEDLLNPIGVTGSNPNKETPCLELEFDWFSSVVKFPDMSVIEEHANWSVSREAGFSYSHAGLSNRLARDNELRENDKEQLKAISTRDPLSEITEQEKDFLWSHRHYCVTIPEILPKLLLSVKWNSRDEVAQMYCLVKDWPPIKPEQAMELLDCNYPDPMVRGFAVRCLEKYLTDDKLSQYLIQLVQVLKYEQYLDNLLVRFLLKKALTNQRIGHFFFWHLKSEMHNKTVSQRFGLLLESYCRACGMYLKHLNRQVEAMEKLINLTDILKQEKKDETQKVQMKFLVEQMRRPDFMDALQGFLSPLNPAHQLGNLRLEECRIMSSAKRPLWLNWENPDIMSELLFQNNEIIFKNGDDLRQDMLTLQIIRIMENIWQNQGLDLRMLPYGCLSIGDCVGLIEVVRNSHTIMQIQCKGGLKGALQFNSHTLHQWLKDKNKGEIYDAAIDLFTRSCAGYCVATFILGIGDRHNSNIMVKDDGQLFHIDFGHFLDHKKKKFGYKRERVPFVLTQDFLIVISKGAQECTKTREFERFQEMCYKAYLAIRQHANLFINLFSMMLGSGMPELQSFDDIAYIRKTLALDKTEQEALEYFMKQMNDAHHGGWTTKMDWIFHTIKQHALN
PIK3CA/PIK3R1 (p110a/p85a), sequence (P27986 whole entry partner): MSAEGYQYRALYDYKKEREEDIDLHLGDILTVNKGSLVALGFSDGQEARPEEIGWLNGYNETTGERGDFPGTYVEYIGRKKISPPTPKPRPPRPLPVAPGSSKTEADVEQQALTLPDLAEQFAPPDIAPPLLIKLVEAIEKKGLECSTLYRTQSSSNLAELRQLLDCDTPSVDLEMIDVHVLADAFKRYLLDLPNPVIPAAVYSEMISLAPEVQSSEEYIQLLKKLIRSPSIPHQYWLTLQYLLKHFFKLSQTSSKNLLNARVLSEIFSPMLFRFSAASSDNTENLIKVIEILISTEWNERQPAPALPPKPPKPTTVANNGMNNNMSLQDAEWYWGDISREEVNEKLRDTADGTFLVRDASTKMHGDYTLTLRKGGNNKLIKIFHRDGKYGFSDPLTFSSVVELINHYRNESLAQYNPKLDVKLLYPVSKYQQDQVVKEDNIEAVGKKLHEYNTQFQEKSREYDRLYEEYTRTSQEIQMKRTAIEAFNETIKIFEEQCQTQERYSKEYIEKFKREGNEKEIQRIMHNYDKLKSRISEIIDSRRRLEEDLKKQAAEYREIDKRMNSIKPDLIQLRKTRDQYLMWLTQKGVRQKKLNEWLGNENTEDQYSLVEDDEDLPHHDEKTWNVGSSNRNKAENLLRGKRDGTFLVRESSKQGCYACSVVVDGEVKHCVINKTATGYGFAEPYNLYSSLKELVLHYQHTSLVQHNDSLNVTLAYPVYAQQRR
Protocol: as §1

ULK2 = target: T1, ULK2 (Homo sapiens, UniProt Q8IYT8); experiment: SelectScreen kinase assay
T1 sequence (Q8IYT8 1-1036): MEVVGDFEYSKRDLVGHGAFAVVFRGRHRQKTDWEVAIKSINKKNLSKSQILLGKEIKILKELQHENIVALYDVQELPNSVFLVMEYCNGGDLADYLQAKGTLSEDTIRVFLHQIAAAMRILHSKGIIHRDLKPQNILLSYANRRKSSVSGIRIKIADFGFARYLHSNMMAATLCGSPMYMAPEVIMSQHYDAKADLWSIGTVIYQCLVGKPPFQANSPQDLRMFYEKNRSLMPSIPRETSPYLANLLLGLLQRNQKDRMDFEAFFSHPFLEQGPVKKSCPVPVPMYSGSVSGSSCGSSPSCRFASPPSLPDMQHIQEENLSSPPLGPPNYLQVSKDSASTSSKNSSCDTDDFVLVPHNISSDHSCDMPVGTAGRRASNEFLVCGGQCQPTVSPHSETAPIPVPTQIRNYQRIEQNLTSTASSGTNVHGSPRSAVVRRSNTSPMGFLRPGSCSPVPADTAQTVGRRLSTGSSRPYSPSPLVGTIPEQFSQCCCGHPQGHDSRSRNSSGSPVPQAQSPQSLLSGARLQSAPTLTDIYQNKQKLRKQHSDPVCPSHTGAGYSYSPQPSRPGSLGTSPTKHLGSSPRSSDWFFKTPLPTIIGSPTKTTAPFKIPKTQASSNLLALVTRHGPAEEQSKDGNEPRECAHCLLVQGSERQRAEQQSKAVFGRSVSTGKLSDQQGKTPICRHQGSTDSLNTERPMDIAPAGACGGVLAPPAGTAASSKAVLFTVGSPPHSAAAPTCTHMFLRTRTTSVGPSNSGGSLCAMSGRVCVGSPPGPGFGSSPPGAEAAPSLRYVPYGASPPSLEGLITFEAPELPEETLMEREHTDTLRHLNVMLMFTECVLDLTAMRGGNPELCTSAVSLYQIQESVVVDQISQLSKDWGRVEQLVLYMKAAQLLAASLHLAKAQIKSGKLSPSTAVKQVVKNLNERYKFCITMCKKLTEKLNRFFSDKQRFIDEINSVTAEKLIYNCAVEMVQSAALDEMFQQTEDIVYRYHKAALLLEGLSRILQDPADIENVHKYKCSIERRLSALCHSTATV
Protocol: as §1

ROCK1 = ROCK1 (Homo sapiens, UniProt Q13464); experiment: SelectScreen kinase assay
ROCK1, sequence (Q13464 whole entry): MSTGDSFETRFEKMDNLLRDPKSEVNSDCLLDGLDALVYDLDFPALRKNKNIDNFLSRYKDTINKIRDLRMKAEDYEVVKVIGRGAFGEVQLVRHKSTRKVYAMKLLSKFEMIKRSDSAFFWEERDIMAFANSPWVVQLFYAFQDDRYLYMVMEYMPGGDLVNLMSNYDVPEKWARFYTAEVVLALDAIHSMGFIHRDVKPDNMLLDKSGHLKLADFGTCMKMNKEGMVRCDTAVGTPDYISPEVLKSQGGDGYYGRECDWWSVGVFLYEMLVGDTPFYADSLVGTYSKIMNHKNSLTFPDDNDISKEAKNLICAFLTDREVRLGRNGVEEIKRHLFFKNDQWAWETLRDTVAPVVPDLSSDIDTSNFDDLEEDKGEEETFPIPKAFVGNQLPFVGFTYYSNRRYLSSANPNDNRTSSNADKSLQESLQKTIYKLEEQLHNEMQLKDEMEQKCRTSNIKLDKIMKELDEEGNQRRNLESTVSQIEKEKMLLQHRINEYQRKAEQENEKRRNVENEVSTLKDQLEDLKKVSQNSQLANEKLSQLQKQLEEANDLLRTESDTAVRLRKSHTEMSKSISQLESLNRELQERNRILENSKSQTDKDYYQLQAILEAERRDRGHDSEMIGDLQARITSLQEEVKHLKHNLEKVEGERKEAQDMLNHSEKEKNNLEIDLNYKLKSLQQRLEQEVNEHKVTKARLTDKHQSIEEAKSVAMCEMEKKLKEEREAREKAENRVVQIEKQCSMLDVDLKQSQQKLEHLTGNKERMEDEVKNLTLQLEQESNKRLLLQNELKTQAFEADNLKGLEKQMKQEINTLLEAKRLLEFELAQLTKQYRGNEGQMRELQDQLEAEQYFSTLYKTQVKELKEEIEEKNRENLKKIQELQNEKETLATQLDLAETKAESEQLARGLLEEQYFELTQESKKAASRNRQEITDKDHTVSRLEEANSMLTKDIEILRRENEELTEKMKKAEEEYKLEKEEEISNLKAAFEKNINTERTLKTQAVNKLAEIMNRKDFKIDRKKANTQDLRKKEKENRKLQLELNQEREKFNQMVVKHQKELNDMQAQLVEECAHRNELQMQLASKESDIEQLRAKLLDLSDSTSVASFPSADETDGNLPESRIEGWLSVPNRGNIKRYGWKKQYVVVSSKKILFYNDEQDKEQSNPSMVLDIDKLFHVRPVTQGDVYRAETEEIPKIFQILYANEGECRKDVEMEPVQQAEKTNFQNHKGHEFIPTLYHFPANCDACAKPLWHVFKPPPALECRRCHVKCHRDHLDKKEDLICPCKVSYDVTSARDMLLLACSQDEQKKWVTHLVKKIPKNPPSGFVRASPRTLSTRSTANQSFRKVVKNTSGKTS
Protocol: as §1

CDK2/cyclin A = CDK2/cyclin A (Homo sapiens, UniProt P24941); experiment: SelectScreen kinase assay
Protocol: as §1

[2] = 1 h, 1 μM WEL028, 1 h preincubation
[3] = read-out: Inhibition at 1 µM (%)

C#CCOc1ccc(Nc2ncc(Cl)c(Nc3ccccc3NC(=O)C=C)n2)c(OC)c1 [Compound 6]
Inhibition (%) (STK4 (MST1); 1 μM WEL028, 1 h preincubation): 3% | Inhibition at 1 µM (%) (STK4 (MST1); 1 µM, ZLYTE, ATP Km app): 11% | Proliferation ratio (FES^S700C HL-60 cells): 1.625 and 1.925 and 1.9 | inhibition at 1 µM (CLK2): 1% | inhibition at 1 µM (ACVRL1 (ALK1); [2]): 6% | Inhibition at 1 µM (%) (ACVRL1 (ALK1); ACVRL1 (ALK1), 1 µM, LanthaScreen Binding): 12% | inhibition at 1 µM (CSNK2A1 (CK2 alpha 1); [2]): 4% | Inhibition at 1 µM (%) (CSNK2A1 (CK2 alpha 1); CSNK2A1 (CK2 alpha 1), 1 µM, ZLYTE, ATP Km app, listed as WEL028, 1 µM): 9% and 0% | inhibition at 1 µM (CDC42 BPG (MRCKG); 1 h): -1% | inhibition at 1 µM (CDC42 BPG (MRCKG); [3]): -1% | Inhibition (%) (JAK1; 1 μM WEL028, 1 h preincubation): -3% | Inhibition at 1 µM (%) (JAK1): -2% | Inhibition at 1 µM (%) (JAK1; listed as WEL028, 1 µM): -3% | inhibition at 1 µM (MAPK1 (ERK2); 1 h): 26% | inhibition at 1 µM (MAPK1 (ERK2); [3]): 26% | inhibition at 1 µM (MAP3K9 (MLK1); [2]): -11% | Inhibition at 1 µM (%) (MAP3K9 (MLK1); MAP3K9 (MLK1), 1 µM, ZLYTE, ATP Km app): -21% | Inhibition (%) (CSNK1G2 (CK1 gamma 2); 1 μM WEL028, 1 h preincubation): 4% | Inhibition at 1 µM (%) (CSNK1G2 (CK1 gamma 2); CSNK1G2 (CK1 gamma 2), 1 µM, ZLYTE, ATP Km app, listed as WEL028, 1 µM): 7% and 1% | inhibition at 1 µM [1, 2]: 14% | Inhibition at 1 µM (%) [1]: 19% | Inhibition at 1 µM (%) ([1]; listed as WEL028, 1 µM): 9% | Inhibition at 1 µM (%) (ULK2; 1 µM, LanthaScreen Binding, listed as WEL028, 1 µM): 4% | inhibition at 1 µM (ULK2; [2]): 3% | inhibition at 1 µM (ULK2; read-out: Inhibition at 1 µM (%), 1 µM, LanthaScreen Binding): 2% | Inhibition at 1 µM (%) (ROCK1; 1 µM, ZLYTE, ATP Km app, listed as WEL028, 1 µM): -6% and 0% | inhibition at 1 µM (ROCK1; [2]): -3% | Inhibition (%) (CDK2/cyclin A; 1 μM WEL028, 1 h preincubation): -3% | Inhibition at 1 µM (%) (CDK2/cyclin A; CDK2/cyclin A, 1 µM, ZLYTE, ATP Km app, listed as WEL028, 1 µM): -5% and 0%
